Measured values: patent US20080262088A1, “METHODS, COMPOUNDS, AND COMPOSITIONS FOR TREATING METABOLIC DISORDERS AND DIABETES” (priority 2006, published 2008)
Values belong to the compound of their own block, whether it stands above or below them.

Tests used:
[1] = tested on: patients with AA amyloidosis; conditions: previously tested clinically in patients with AA amyloidosis; cited from earlier work
[2] = tested on: Peroxisome proliferator-activated receptor gamma (PPARG); assay: Kidney gene expression, Gene Chip Rat Exon 1.0 ST Array; format: in vivo; conditions: pooled whole kidney RNA, treated vs controls
Procedure: The effect of the PDS treatment on kidney gene expression was also measured. Briefly, whole kidney RNA was isolated and pooled from 2-4 individual rats from each group (controls and treated group). The polled RNA was then processed using a Gene Chip Rat Exon 1.0 ST Array™ (Affimetrix) according to the manufacturer's standard procedure and analyzed for differential expression between the two groups on gene and exon levels. […] PPARG is a well known transcriptional regulator that regulates lipid, glucose and amino acid metabolism, and this receptor is the main target of the thiazolidinediones used in diabetes mellitus and other diseases that feature insulin resistance.

[3] = tested on: Zucker Diabetic Fatty rat (ZDF); assay: In vivo preventive study of renal function and metabolic status in ZDF rats (serum/urine chemistry, body and organ weights)
Source text: The compound 1,3 Propanedisulfonic Acid Disodium Salt (PDS) was selected for a preventive study of renal function in the Zucker rat (ZDF) model as well as its effect on metabolic status and diabetes.
A leading study model for DN is the inbred Zucker Diabetic Fatty rat (ZDF). Given a diabetogenic diet, the ZDF rat will closely mimic human adult onset diabetes (Type 2) and related complications including glomerulosclerosis and renal damage earlier than when fed a normal diet (i.e. 14-18 weeks of age). In addition, obesity, mild hypertension, hypertriglyceridemia, hypercholesterolemia, fasting hyperglycemia, impaired glucose tolerance and hyperinsulinemia, are all major phenotypes featured in the ZDF rat.
(§1) Thirty-two, 6 week-old male ZDF rats (Charles River, St. Constant, Canada) were randomized in 2 groups, Treated (PDS; in 1% sucrose drinking solution) and Control (1% sucrose drinking solution), and studied for a period of 12 weeks. […] All rats were fed a high fat/high sucrose diabetogenic diet (Harlan™ TD95217). Body weight, food and drinking solution consumption were measured on a daily basis. Twelve rats from each group were individually housed in metabolic cages for a period of 24 hours once a week. During week 2, 3, 4 and 5, rats placed in metabolic cages received drinking solution but were placed in fasting condition, whereas during weeks 1, […], 6 to 12, rats were given ad libitum access to food and drinking solution. At the end of each metabolic cage session, urine output was measured, and blood and urine samples were collected in order to quantify serum and/or urine levels of PDS, creatinine, protein, uric acid, triglycerides, glucose, and electrolytes. These variables were used to calculate creatinine clearance (Ccr) and proteinuria, and to evaluate general metabolic and renal health status. At the end of the study, the animals were sacrificed and selected organs were kept for further analysis (e.g. weighing, histology).
This pre-clinical investigation evaluates the role and efficacy of compound 1,3-Propanedisulfonic Acid Disodium Salt (PDS) (Eprodisate Disodium) as a preventive treatment for DN and related pathophysiology in the ZDF rat model. The primary measured outcome is the attenuation/reversal of creatinine clearance deterioration and of proteinuria. The secondary measured outcome is the impact on the metabolic status in this model.
Results for each time point are represented as median or mean ± SEM. Trend statistics are calculated by two-way ANOVA with or without repeated measures, with p<0.05 considered statistically significant.

[4] = tested on: Zucker Diabetic Fatty rat (ZDF); assay: Kidney histology (glomerular global score) in ZDF rats; format: in vivo; conditions: after 12 weeks
Source text: FIG. 7 is a bar graph showing glomerular global score for control and treated satient Zucker diabetic obese male rats after 12 weeks, according to Example 11(a). Categories: (−) no global score; (±) mild global score; (+) mild to moderate global score; (++) moderate global score.
(§2) Thirty-two, 6 week-old male ZDF rats (Charles River, St. Constant, Canada) were randomized in 2 groups, Treated (PDS; in 1% sucrose drinking solution) and Control (1% sucrose drinking solution), and studied for a period of 12 weeks. […] All rats were fed a high fat/high sucrose diabetogenic diet (Harlan™ TD95217). Body weight, food and drinking solution consumption were measured on a daily basis. Twelve rats from each group were individually housed in metabolic cages for a period of 24 hours once a week. […] At the end of each metabolic cage session, urine output was measured, and blood and urine samples were collected in order to quantify serum and/or urine levels of PDS, creatinine, protein, uric acid, triglycerides, glucose, and electrolytes. […]
Histology was performed on both controls and PDS-treated animals. […] The global score was calculated by summing up the number of observations for each histological parameter (mesangial matrix expansion, glomerular cell proliferation, basement membrane thickening, and glomerular enlargement). […]

[5] = tested on: Zucker Diabetic Fatty rat (ZDF); assay: Histology of the pancreas in ZDF rats (islets of Langerhans per field); format: in vivo; conditions: week 12, significant difference, FIG. 11
Source text: FIG. 11 is a box graph showing distribution of number of islets of Langerhans per field counted during histology of the pancreas from control and treated Zucker diabetic obese male rats at week 12, according to Example 11(b). Box plot lower limit represents the 25th percentile, whereas higher limit represents 75th percentile. Whiskers above and below indicate 90th and 10th percentiles, and median and mean values are represented by solid and dashed lines respectively.
as §2

SHR rats = assay: In vivo preventive study of pancreatic function in SHR rats (streptozotocine, OGTT); design: species or system rat; conditions: low dose streptozotocine after initiation of treatment, PDS vs vehicle
Procedure: SHR rats are non-diabetic rats but having insulin resistance. Rats are divided in two groups which are administered PDS or vehicle respectively. After initiation of treatment, all rats are administered streptozotocine at low dose with the aim to chemically destroy a portion of Langerhans islets. Both treated and control rats are challenged by an Oral Glucose Tolerance Test (OGTT) and glucose levels are measured.

[6] = tested on: Zucker Diabetic Fatty rat (ZDF); assay: Effect on pancreatic function in ZDF rats (satient insulin, glycemia, diuresis); format: in vivo
Procedure: as §1
As is known, diabetes may be due to a lack of insulin secretion (type I diabetes), or to a resistance of peripheral tissues to insulin action (more insulin is needed to decrease blood glucose to the same level as controls in the same amount of time; type II diabetes). The Zucker obese diabetic rat employed in this study is a model of insulin resistance. Hyperglycemia is almost always observed in this model, despite the initially very high circulating insulin levels that fall down with the progression of the disease due to pancreatic beta cell exhaustion. A beneficial treatment is expected to increase insulin secretion, decrease glucose levels by other means or increase glucose utilization by peripheral tissues.
Results for each time point are represented as median and mean ± SEM. Trend statistics are calculated by two-way ANOVA with or without repeated measures, with p<0.05 considered statistically significant.

[7] = end of 12-week study, not shown

SMILES: O=S(=O)(O)CCCS(=O)(=O)O [1,3-propanedisulfonic acid]
safety in humans [1]: can be safely used in humans

heart weight/BW ratio, treated vs control [3, 7]: no significant difference | kidney weight/BW ratio, treated vs control [3, 7]: no significant difference | pancreas weight/BW ratio, treated vs control [3, 7]: no significant difference | bodyweight of the treated vs. the control animals ([3]; male ZDF rats, PDS in 1% sucrose drinking solution, 12 weeks, data not shown): not significant difference
SMILES: O=S(=O)([O-])CCCS(=O)(=O)[O-].[Na+].[Na+] [PDS, 1,3 Propanedisulfonic Acid Disodium Salt]
PPARG gene expression in kidney, increase in treatment group [2]: 1.85 fold | number of genes down regulated in the treatment group ([2]; not shown): 43 genes | number of genes up regulated in the treatment group ([2]; not shown): 75 genes | creatinine clearance (body weight corrected), treated vs control ([3]; 12 weeks of treatment, FIG. 2B, slight tendency to be higher weeks 6-8): no significant difference | clearance of uric acid, treated vs control ([3]; FIG. 4B, body weight corrected): better in treated animals | proteinuria (urine protein content), treated vs control ([3]; after 8 weeks measurable effect, difference significant at weeks ten and twelve, FIG. 3): lesser proteinuria | kidney size, treated vs controls ([3]; end of 12-week study): tended to be smaller | serum triglycerides, PDS-treated vs controls ([3]; from onset of treatment throughout the study, p=0.002, FIG. 6A): consistently lower | adverse effect at the beginning of the study (little decline in body weight) ([3]; higher concentration of PDS, week 1 (avg 4270 mg/kg/day)): diarrhea | serum creatinine, treated vs control ([3]; satient ZDF rats, 12 weeks, FIG. 2A, stable in both groups): tendency for lower values between treatment weeks 6 and 9 | hyperkalemia (serum potassium), control vs treated ([3]; starting at week 7, weeks 8 to 12, p<0.001, FIG. 5): significantly more severe in the control group | serum cholesterol, PDS-treated vs control ([3]; treatment week 10, FIG. 6B): significantly lower | serum cholesterol ([3]; week 12, control 7.1 mmol/L, p<0.001): 4.5 mmol/L | uric acid levels in serum, control group relative to PDS-treated animals ([3]; weeks 6 to 12, FIG. 4A): consistently higher than values from the PDS-treated animals | glomerular global score (histology) ([4]; p=0.001, FIG. 7, sum of mesangial matrix expansion, glomerular cell proliferation, basement membrane thickening, glomerular enlargement): lowest scores | kidney pathology (histology), treated vs control ([4]; not shown separately): less pathology | number of islets of Langerhans per field, treated vs controls [5]: higher number | glucose levels after Oral Glucose Tolerance Test (OGTT) (SHR rats): lower glucose levels than control | glycemia, serum glucose by hexokinase (HK) II method, PDS-treated vs control ([6]; by week 10, p<0.001, FIG. 9A): significantly lower | glycemia, capillary blood glucose by glucose meter kit, PDS-treated vs control ([6]; by week 10, p=0.002, FIG. 9B): significantly lower | satient serum insulin (RIA), PDS-treated vs control ([6]; end of the experiment (12 weeks), fed animals, FIG. 8): more than twice as high | diuresis (urine production), PDS-treated vs control ([6]; from week 9, FIG. 10): lower
